Experimental findings from US6946480B2, “Glutaminyl based DPIV inhibitors” (priority 2002, dated 2005) are described below.

The structures appear in SMILES notation. Entries after “also recorded” stand apart in the source; their conditions may differ.

The nature of data set [1]: Plasma stability (half-life of inhibitory potency in human plasma). It is filed as in vitro ADME. As to the method: In order to investigate the stability of glutaminyl pyrrolidine or glutaminyl thiazolidine in human plasma, the activity of DPIV in plasma was determined at a defined time. The average DPIV activity in human plasma was determined as 43.69 U/ml. In the working solution, the plasma was diluted in 0.9% NaCl to fix the DPIV activity level at 25 U/ml.
Plasma and glutaminyl pyrrolidine or glutaminyl thiazolidine in different concentrations (5*10^−5, 2.5*10^−5, 1.25*10^−5M in plasma) were incubated at 37° C. At defined time points samples were taken using a pipette roboter (Gilson 215, Liquid handler, Gilson) and transferred in a microtiter plate containing 5*10^−5M glycylprolylaminomethylcoumarine in 0.9% NaCl+015% Brij per well. After 6 min the reaction was stopped by addition of isoleucylthiazolidine (5*10^−5M in 0.9% NaCl solution).
Fluorescence measurement was performed against 0.9% NaCl in plasma (reference standard) using a plate reader (HTS7000plus, Applied Biosystems, Weiterstadt, Germany). The half-life of the inhibitory potency of glutaminyl pyrrolidine or glutaminyl thiazolidine was calculated by plotting the enzyme activity versus reaction time.

Data set [2] is described as follows: In vivo inactivation (degradation) after oral administration to Wistar rats, LC/MS. To be noted: LC/MS of plasma. As to the method:
Glutaminyl thiazolidine was administered to Wistar rats orally as described in example 9.
After application of placebo or glutaminyl thiazolidine, arterial blood samples were taken at 2.5, 5, 7.5, 10, 15, 20, 40, 60 and 120 min from the carotid catheter of the conscious unrestrained rats to determine the formation of degradation products of glutaminyl thiazolidine.
For analysis, simple solid phase extraction procedure on C18 cartridges was used to isolate the compounds of interest from the plasma. The extracts were analysed using reversed-phase liquid chromatography on Lichrospher 60 RP Select B column hyphenated with tandem mass spectrometry operating in the APCl positive mode. An internal standard method was used for quantification.

Where [3] appears, read: listed as Glutaminyl thiazolidine.

For the compound `NC(=O)CCC(N)C(=O)N1CCSC1` (stereo not drawn) [glutaminyl thiazolidine], the “half-life of the inhibitory potency in human plasma” value in data set [1] (37° C., 5*10^−5, 2.5*10^−5, 1.25*10^−5M) is on record as “no half-time could be determined”. In addition, the “stability in human plasma” value in data set [1] (over 22 hours) is “stable in human plasma over 22 hours”. Besides, the degradation in vivo result in data set [2] was “a degradation of the compound was found”; in data set [2] (setting [3]) it was “degraded”. Further, the “degradation product found in vivo” value is on record as “pyroglutaminyl thiazolidine; also recorded: pyroglutamyl thiazolidine” in data set [2] and “pyroglutaminyl thiazolidine” in data set [2] (setting [3]).
